Common to all, as to type: biochemical
Experiment [1] deals with FGFR1 (Homo sapiens, UniProt P11362). Briefly: FGFR1 bioassay (ELISA, in vitro kinase activity). The following applies: purified GST-FGFR1, poly(Glu-Tyr) substrate. How it is done: This assay is used to measure the in vitro kinase activity of FGF1-R in an ELISA assay.
1. Costar 96-well ELISA plates (Corning Catalog #3369).
2. Poly(Glu-Tyr) (Sigma Catalog #P0275).
4. 50 mM Hepes Buffer Solution.
5. Blocking Buffer (5% BSA/PBS).
6. Purified GST-FGFR1 (SUGEN, Inc.)
7. Kinase Dilution Buffer. Mix 500 μl 1M Hepes (GIBCO), 20 μl 5% BSA/PBS, 10 μl 100 mM sodium orthovanadate and 50 μl 5M NaCl.
9. ATP/MnCl2 phosphorylation mix: mix 20 μL ATP, 400 μL 1M MnCl2 and 9.56 ml dH2O.
10. NUNC 96-well V bottom polypropylene plates (Applied Scientific Catalog #AS-72092).
12. 0.05% TBST Add 500 μL TWEEN to 1 liter TBS.
13. Rabbit polyclonal anti-phosphotyrosine serum (SUGEN, Inc.).
14. Goat anti-rabbit IgG peroxidase conjugate (Biosource, Catalog #ALI0404).
1. Coat Costar 96 well ELISA plates with 1 μg per well Poly(Glu-Tyr) in 100 μl PBS. Store overnight at 4° C.
2. Wash coated plates once with PBS.
3. Add 150 μL of 5%BSA/PBS Blocking Buffer to each well. Incubate, with shaking, for 1 hr at room temperature.
4. Wash plate 2× with PBS, then once with 50 mM Hepes. Pat plates on a paper towel to remove excess liquid and bubbles.
5. Add 25 μL of 0.4 mM test compound in 4% DMSO or 4% DMSO alone (controls) to plate.
6. Dilute purified GST-FGFR1 in Kinase Dilution Buffer (5 ng kinase/50 μl KDB/well).
7. Add 50 μL of diluted kinase to each well.
8. Start kinase reaction by adding 25 μl/well of freshly prepared ATP/Mn++ (0.4 ml 1M MnCl2, 40 μL 10 mM ATP, 9.56 ml dH2O), freshly prepared).
9. Stop reaction with 25 μL of 0.5M EDTA.
10. Wash plate 4× with fresh TBST.
11. Make up Antibody Dilution Buffer: For 50 ml, mix 5 ml of 5% BSA, 250 μl of 5% milk and 50 μl of 100 mM sodium vanadate, bring to final volume with 0.05% TBST.
12. Add 100 μl per well of anti-phosphotyrosine (1:10000 dilution in ADB). Incubate, with shaking for 1 hr. at room temperature.
14. Add 100 μl per well of Biosource Goat anti-rabbit IgG peroxidase conjugate (1:6000 dilution in ADB). Incubate, with shaking for 1 hr. at room temperature.
15. Wash as in step 10 and then with PBS to remove bubbles and excess TWEEN.
16. Add 100 μl of ABTS/H2O2 solution to each well.
17. Incubate, with shaking, for 10 to 20 minutes. Remove any bubbles.
18. Read assay on Dynatech MR7000 ELISA reader: test filter at 410 nM, reference filter at 630 nM.

Experiment [2] has as its target T1, PDGFR (UniProt P09619).
T1 construct: PDGFR-β expressing NIH 3T3 cell lysate (SUGEN, Inc.)
Put plainly: PDGFR bioassay (ELISA, in vitro kinase activity). Conditions: PDGFR-β expressing NIH 3T3 cell lysate, 20 μM ATP. How it is done: This assay is used to the in vitro kinase activity of PDGFR in an ELISA assay.
1. Corning 96-well ELISA plates
2. 28D4C10 monoclonal anti-PDGFR antibody (SUGEN, Inc.).
5. Blocking Buffer (same as for EGFR bioassay).
6. PDGFR-β expressing NIH 3T3 cell lysate (SUGEN, Inc.).
11. Kinase buffer phosphorylation mix: for 10 ml, mix 250 μl 1M TRIS, 200 μl 5M NaCl, 100 μl 1M MnCl2 and 501l 100 mM Triton X-100 in enough dH2O to make 10 ml.
12. NUNC 96-well V bottom polypropylene plates.
14. Rabbit polyclonal anti-phosphotyrosine serum (SUGEN, Inc.).
15. Goat anti-rabbit IgG peroxidase conjugate (Biosource Cat. No. ALI0404).
17. Hydrogen peroxide, 30% solution.
1. Coat Corning 96 well ELISA plates with […] 28D4C 10 in 100 μl PBS per well, hold overnight at 4° C.
2. Remove unbound 28D4C10 from wells by inverting plate to remove liquid. Wash 1× with dH2O. Pat the plate on a paper towel to remove excess liquid.
3. Add 150 μl of Blocking Buffer to each well. Incubate for 30 min. at room temperature with shaking.
4. Wash plate 3× with deionized water, then once with TBST. Pat plate on a paper towel to remove excess liquid and bubbles.
5. Dilute lysate in HNTG (10 μg lysate/100 μl HNTG).
6. Add 100 μl of diluted lysate to each well. Shake at room temperature for 60 min.
7. Wash plates as described in Step 4.
8. Add 80 μl working kinase buffer mix to ELISA plate containing captured PDGFR.
9. Dilute test compound 1:10 in TBS in 96-well polypropylene plates.
10. Add 10 μl diluted test compound to -ELISA plate. To control wells, add 10 μl TBS+10% DMSO. Incubate with shaking for 30 minutes at room temperature.
11. Add 10 μl ATP directly to all wells except negative control well (final well volume should be approximately 100 μl with 20 μM ATP in each well.) Incubate 30 minutes with shaking.
12. Stop reaction by adding 10 μl of EDTA solution to each well.
13. Wash 4× with deionized water, twice with TBST.
14. Add 100 μl anti-phosphotyrosine (1:3000 dilution in TBST) per well.
Incubate with shaking for 30-45 min. at room temperature.
16. Add 100 μl Biosource Goat anti-rabbit IgG peroxidase conjugate (1:2000 dilution in TBST) to each well. Incubate with shaking for 30 min. at room temperature.
18. Add 100 μl of ABTS/H2O2 solution to each well.
19. Incubate 10 to 30 minutes with shaking. Remove any bubbles.
20. If necessary stop reaction with the addition of 100 μl 0.2 M HCl per well.
21. Read assay on Dynatech MR7000 ELISA reader with test filter at 410 nM and reference filter at 630 nM.

Experiment [3] has as its target P38 (Homo sapiens, UniProt Q16539). Put plainly: P38 kinase inhibition.

Bounds are passed on as bounds.

FGFR1, sequence (P11362 22-822, species assumed): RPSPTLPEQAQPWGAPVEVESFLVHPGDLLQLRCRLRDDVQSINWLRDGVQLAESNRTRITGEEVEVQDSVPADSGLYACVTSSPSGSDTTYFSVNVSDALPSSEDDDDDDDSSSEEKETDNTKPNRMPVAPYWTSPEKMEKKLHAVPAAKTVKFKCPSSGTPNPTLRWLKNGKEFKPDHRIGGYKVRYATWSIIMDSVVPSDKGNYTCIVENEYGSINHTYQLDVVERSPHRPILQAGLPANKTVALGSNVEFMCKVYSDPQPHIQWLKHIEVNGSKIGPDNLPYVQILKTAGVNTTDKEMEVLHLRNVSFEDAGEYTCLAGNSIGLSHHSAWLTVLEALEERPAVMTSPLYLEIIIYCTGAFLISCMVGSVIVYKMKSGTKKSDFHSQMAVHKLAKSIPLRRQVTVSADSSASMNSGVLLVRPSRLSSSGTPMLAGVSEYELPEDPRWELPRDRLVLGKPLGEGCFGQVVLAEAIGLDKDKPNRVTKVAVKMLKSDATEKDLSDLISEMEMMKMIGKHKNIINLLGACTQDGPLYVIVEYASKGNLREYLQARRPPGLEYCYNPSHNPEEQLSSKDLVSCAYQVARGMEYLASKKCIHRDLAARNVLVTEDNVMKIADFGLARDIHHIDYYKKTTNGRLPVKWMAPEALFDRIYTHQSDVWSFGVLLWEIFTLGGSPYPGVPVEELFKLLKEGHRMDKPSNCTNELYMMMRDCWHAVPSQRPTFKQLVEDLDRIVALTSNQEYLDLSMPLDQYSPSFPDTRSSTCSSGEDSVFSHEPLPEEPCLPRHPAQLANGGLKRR
P38, sequence (Q16539 whole entry): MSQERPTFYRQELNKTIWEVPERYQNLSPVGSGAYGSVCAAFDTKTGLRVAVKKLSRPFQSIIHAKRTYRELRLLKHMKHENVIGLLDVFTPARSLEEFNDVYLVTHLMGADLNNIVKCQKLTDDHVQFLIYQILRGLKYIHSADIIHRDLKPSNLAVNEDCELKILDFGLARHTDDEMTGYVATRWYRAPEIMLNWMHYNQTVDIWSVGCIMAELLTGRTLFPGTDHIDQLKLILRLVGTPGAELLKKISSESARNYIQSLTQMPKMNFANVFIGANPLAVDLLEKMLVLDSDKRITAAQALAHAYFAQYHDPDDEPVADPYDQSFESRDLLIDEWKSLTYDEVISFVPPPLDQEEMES

For `CCN(CC)CCNC(=O)c1c(C)[nH]c(/C=C2\C(=O)Nc3cccc(-c4cccc(Br)c4)c32)c1C` [Example 63, 5-[4-(3-Bromo-phenyl)-2-oxo-1,2-dihydro-indol-3-ylidenemethyl]-2,4-dimethyl-1H-pyrrole-3-carboxylic Acid (2-Diethylamino-ethyl)-amide], the IC50 is 0.24 µM in experiment [1] and 2.18 µM in experiment [2].
For the compound `Cc1[nH]c(/C=C2\C(=O)Nc3cccc(-c4ccc(Br)cc4)c32)c(C)c1C(=O)N1CCN(C)CC1` [Example 53], the concentration for half-maximal inhibition (IC50) in experiment [1] was 1.15 µM; in experiment [2], > 20 µM; in experiment [3], > 10 µM.
In the case of `CCN(CC)CCNC(=O)c1c(C)[nH]c(/C=C2\C(=O)Nc3cccc(-c4cccc(OC)c4)c32)c1C` [Example 46, 5-[4-(3-Methoxy-phenyl)-2-oxo-1,2-dihydro-indol-3-ylidenemethyl]-2,4-dimethyl-1H-pyrrole-3-carboxylic Acid (2-Diethylamino-ethyl)-amide], the IC50 is 0.022 µM in experiment [1], 4.19 µM in experiment [2] and > 10 µM in experiment [3].
Consider `Cc1cc(C(=O)N2CC[C@H](N(C)C)C2)c(/C=C2\C(=O)Nc3cccc(-c4ccc(F)cc4)c32)[nH]1` [Example 10, 3-[3-((S)-3-Dimethylamino-pyrrolidine-1-carbonyl)-5-methyl-1H-pyrrol-2-ylmethylene]-4-(4-fluoro-phenyl)-1,3-dihydro-indol-2-one], for which the IC50 in experiment [1] was 1.54 µM; in experiment [2], 11.9 µM; in experiment [3], > 10 µM.
Turning to `Cc1cc(C(=O)NCCN2CCCC2)c(/C=C2\C(=O)Nc3cccc(-c4ccc(F)c(Cl)c4)c32)[nH]1` [Example 119, 2-[4-(3-Chloro-4-fluoro-phenyl)-2-oxo-1,2-dihydro-indol-3-ylidenemethyl]-5-methyl-1H-pyrrole-3-carboxylic Acid (2-Pyrrolidin-1-yl-ethyl)-amide], the half-maximal inhibitory concentration (IC50) was determined as 0.24 µM in experiment [1] and 9.87 µM in experiment [2].
For `CCN(CC)CCNC(=O)c1c(C)[nH]c(/C=C2\C(=O)Nc3cccc(-c4ccc(OC(F)(F)F)cc4)c32)c1C` [Example 140, 2,4-Dimethyl-5-[2-oxo-4-(4-trifluoromethoxy-phenyl)-1,2-dihydro-indol-3-ylidenemethyl]-1H-pyrrole-3-carboxylic Acid (2-Diethylamino-ethyl)-amide], the values for the IC50 in experiment [1] and in experiment [2] were 0.52 µM and > 20 µM, respectively.
Take `Cc1cc(C(=O)N2C[C@@H](C)N[C@@H](C)C2)c(/C=C2\C(=O)Nc3cccc(-c4cccc(Cl)c4)c32)[nH]1` [Example 35, 4-(3-Chloro-phenyl)-3-[3-((cis)-3,5-dimethyl-piperazine-1-carbonyl)-5-methyl-1H-pyrrol-2-ylmethylene]-1,3-dihydro-indol-2-one]: the half-inhibitory concentration (IC50) in experiment [1] was 0.22 µM; in experiment [2] it was 1.59 µM; in experiment [3], > 10 µM.
Regarding `COc1cccc(-c2cccc3c2/C(=C/c2[nH]c(C)c(C(=O)NCCN(C(C)C)C(C)C)c2C)C(=O)N3)c1` [Example 52, 5-[4-(3-Methoxy-phenyl)-2-oxo-1,2-dihydro-indol-3-ylidenemethyl]-2,4-dimethyl-1H-pyrrole-3-carboxylic Acid (2-Diisopropylamino-ethyl)-amide], the half-maximal inhibitory concentration (IC50) was 0.035 µM in experiment [1], 1.54 µM in experiment [2] and > 10 µM in experiment [3].
Turning to `COc1ccc(-c2cccc3c2/C(=C/c2[nH]c(C)cc2C(=O)NCCN2CCCC2)C(=O)N3)cc1` [Example 41, 2-[4-(4-Methoxy-phenyl)-2-oxo-1,2-dihydro-indol-3-ylidenemethyl]-5-methyl-1H-pyrrole-3-carboxylic Acid (2-Pyrrolidin-1-yl-ethyl)-amide], the concentration for half-maximal inhibition (IC50) is 0.56 µM in experiment [1], 3.84 µM in experiment [2] and > 10 µM in experiment [3].
`Cc1cc(C(=O)NCCn2ccnn2)c(/C=C2\C(=O)Nc3cccc(-c4cccc(Cl)c4)c32)[nH]1` [Example 34, 2-[4-(3-Chloro-phenyl)-2-oxo-1,2-dihydro-indol-3-ylidenemethyl]-5-methyl-1H-pyrrole-3-carboxylic Acid (2-[1,2,3]Triazol-1-yl-ethyl)-amide]: the IC50 is 0.5 µM in experiment [1], > 20 µM in experiment [2] and > 10 µM in experiment [3].
As for `Cc1cc(C(=O)N2C[C@@H](C)N[C@@H](C)C2)c(/C=C2\C(=O)Nc3cccc(-c4ccc(Cl)cc4)c32)[nH]1` [Example 27], the IC50 in experiment [1] is 0.63 µM; in experiment [2], > 20 µM; in experiment [3], > 10 µM.
Taken in the same sequence, the figures for `CCN(CC)CCNC(=O)c1c(C)[nH]c(/C=C2\C(=O)Nc3cccc(-c4ccccc4)c32)c1C` [Example 3, 2,4-Dimethyl-5-(2-oxo-4-phenyl-1,2-dihydro-indol-3-ylidenemethyl)-1H-pyrrole-3-carboxylic Acid (2-Diethylamino-ethyl)-amide] were 0.031 µM, 0.44 µM and > 10 µM.
As for `Cc1[nH]c(/C=C2\C(=O)Nc3cccc(-c4cccc(C(F)(F)F)c4)c32)c(C)c1C(=O)N1CCN(C)CC1` [Example 104, 3-[3,5-Dimethyl-4-(4-methyl-piperazine-1-carbonyl)-H-pyrrol-2-ylmethylene]-4-(3-trifluoromethyl-phenyl)-1,3-dihydro-indol-2-one], the IC50 in experiment [1] is 0.3 µM; in experiment [2] it was 19 µM.
For the compound `Cc1cc(C(=O)NCCn2ccnn2)c(/C=C2\C(=O)Nc3cccc(-c4ccccc4F)c32)[nH]1` [Example 99, 2-[4-(2-Fluoro-phenyl)-2-oxo-1,2-dihydro-indol-3-ylidenemethyl]-5-methyl-1H-pyrrole-3-carboxylic Acid (2-[1,2,3]Triazol-1-yl-ethyl)-amide], the IC50 is 0.61 µM in experiment [1] and > 20 µM in experiment [2].
In the case of `Cc1[nH]c(/C=C2\C(=O)Nc3cccc(-c4ccccc4F)c32)c(C)c1C(=O)N1CCN(C)CC1` [Example 93, 3-[3,5-Dimethyl-4-(4-methyl-piperazine-1-carbonyl)-1H-pyrrol-2-ylmethylene]-4-(2-fluoro-phenyl)-1,3-dihydro-indol-2-one], the figures for the IC50 in experiment [1] and in experiment [2] were 0.083 µM and 3.76 µM, respectively.

Values taken from patent US6677368B2, “4-aryl substituted indolinones” (Sugen, Inc., priority 2000, dated 2004).
